The test system of one data set is Aphidius rhopalosiphi. The data set is described as follows: LR50; higher = less toxic. Particulars: not reported; mortality.
The test system of the next data set is Lepomis macrochirus. Particulars: acute; duration: 96 hours; mortality.
The test system of a further data set is Oncorhynchus mykiss. Particulars: chronic/long-term; duration: 28 days; other.
A further data set deals with Anas platyrhynchos. Particulars: short-term; oral; feed; mortality.
The next data set has as its system Daphnia magna. Particulars: chronic/long-term; duration: 21 days; reproduction.
The next data set concerns Hypoaspis aculeifer. Particulars: chronic/long-term.
Another data set relates to Apis mellifera. Particulars: acute; duration: 48 hours; dermal; mortality.
A further data set deals with Coturnix japonica. Particulars: reproduction developmental.
The subject of a further data set is Colinus virginianus. Particulars: acute; oral; mortality.
Another data set concerns Bibionidae. Particulars: chronic/long-term; duration: 28 days.
The subject of a further data set is Canidae. Particulars: chronic; duration: 52 weeks; oral; Dog Other; histopathology: nonneoplastic.

For `COC(=O)[N-]S(=O)(=O)c1ccc(N)cc1.[Na+]` [Asulam-sodium], the LR50 in the data set on Aphidius rhopalosiphi stood at 3090 mL/ha. The LC50 is more than 91.3 µg/mL in the data set on Lepomis macrochirus and 1000 mg/kg in the data set with Tagia sp. (acute, duration: 14 days, mortality). The NOEC with Oncorhynchus mykiss is 119 mg/L; with Daphnia magna, 6.4 mg/L; with Hypoaspis aculeifer, 4370 mg/kg; in the data set with Tagia sp. (chronic/long-term, duration: 56 days) it was 181 mg/kg; in the data set with Bibionidae, 91.3 mg/L. In addition, the LD50 is more than 22700 mg/kg-day with Anas platyrhynchos; more than 4560 mg/kg with Rattus norvegicus (acute, oral, mortality); more than 100 µg/piece in the data set on Apis mellifera; more than 1830 mg/kg with Colinus virginianus. The NOAEL with Rattus norvegicus (chronic, duration: 2 years, hematological) was determined as 36 mg/kg-day; with Canidae it was 100 mg/kg-day. Further, the NOEL with Rattus norvegicus (reproduction developmental, reproduction) is 46 mg/kg-day; in the data set on Coturnix japonica, 19 mg/kg-day. Also, the NOAEC in the data set on Coturnix japonica came to 65 mg/kg-day.

As usually defined, the NOAEL is the highest tested level that showed no adverse finding.

Source of the values: EPA's ToxValDB 9.5 (doi:10.2903/j.efsa.2010.1822).
